Results published in PubChem BioAssay (NCI).
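Each compound was tested at five concentrations against cells in 96-well plates for 48 hours. TGI: concentration producing complete growth inhibition.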

Assays:
Assay in all cases: NCI tumour cell line growth inhibition, 48 h
[1] = test system: NCI-H522 lung
[2] = test system: MALME-3M melanoma
[3] = test system: SF-295 CNS
[4] = test system: OVCAR-8 ovarian
[5] = test system: LOX IMVI melanoma
[6] = test system: A498 renal
[7] = test system: K-562 leukemia
[8] = test system: HT29 colon
[9] = test system: HOP-92 NSCLC
[10] = test system: SK-MEL-28 melanoma
[11] = test system: UACC-257 melanoma
[12] = test system: MDA-MB-435
[13] = test system: SK-MEL-5 melanoma
[14] = test system: IGROV1 ovarian
[15] = test system: EKVX NSCLC
[16] = test system: OVCAR-3 ovarian
[17] = test system: HL-60(TB) leukemia
[18] = test system: NCI/ADR-RES ovarian
[19] = test system: SN12C renal
[20] = test system: UO-31 renal
[21] = test system: SK-OV-3 ovarian
[22] = test system: HCC-2998 colon
[23] = test system: DU-145 prostate
[24] = test system: RPMI-8226 leukemia
[25] = test system: SW-620 colon
[26] = test system: NCI-H460 lung
[27] = test system: SR leukemia
[28] = test system: RXF 393 renal
[29] = test system: HOP-62 NSCLC
[30] = test system: UACC-62 melanoma
[31] = test system: SNB-19 CNS
[32] = test system: 786-0 renal
[33] = test system: NCI-H23 lung
[34] = test system: OVCAR-4 ovarian
[35] = test system: HCT-116 colon
[36] = test system: HS 578T breast
[37] = test system: ACHN renal
[38] = test system: SK-MEL-2 melanoma
[39] = test system: MDA-N
[40] = test system: A549 NSCLC
[41] = test system: OVCAR-5 ovarian
[42] = test system: PC-3 prostate
[43] = test system: TK-10 renal
[44] = test system: MCF7 breast
[45] = test system: M14 melanoma
[46] = test system: CAKI-1 renal
[47] = test system: T-47D breast
[48] = test system: NCI-H226 lung
[49] = test system: KM12 colon
[50] = test system: HCT-15 colon
[51] = test system: BT-549 breast
[52] = test system: SF-268 CNS
[53] = test system: MOLT-4 leukemia
[54] = test system: U251 CNS
[55] = test system: SF-539 CNS
[56] = test system: SNB-75 CNS
[57] = test system: CCRF-CEM leukemia
[58] = test system: COLO 205 colon

SMILES: CC(=O)Oc1ccc2[nH]c3c(C)c4cccc-4ccc3c2c1
- TGI [1]: 3.86 µM
- TGI [2]: 3.63 µM
- TGI [3]: 4.32 µM
- TGI [4]: 4.63 µM
- TGI [5]: 4.4 µM
- TGI [6]: 5.53 µM
- TGI [7]: 11.5 µM
- TGI [8]: 4.18 µM
- TGI [9]: 4.17 µM
- TGI [10]: 4.47 µM
- TGI [11]: 4.07 µM
- TGI [12]: 3.81 µM
- TGI [13]: 3.95 µM
- TGI [14]: 3.2 µM
- TGI [15]: 4.21 µM
- TGI [16]: 3.64 µM
- TGI [17]: 6.87 µM
- TGI [18]: 5.33 µM
- TGI [19]: 4.49 µM
- TGI [20]: 3.19 µM
- TGI [21]: 4.28 µM
- TGI [22]: 5.05 µM
- TGI [23]: 12.7 µM
- TGI [24]: 11 µM
- TGI [25]: 10.7 µM
- TGI [26]: 10.3 µM
- TGI [27]: 34.6 µM
- TGI [28]: 3.78 µM
- TGI [29]: 4.8 µM
- TGI [30]: 3.42 µM
- TGI [31]: 3.69 µM
- TGI [32]: 3.36 µM
- TGI [33]: 3.96 µM
- TGI [34]: 3.5 µM
- TGI [35]: 4.31 µM
- TGI [36]: 7.74 µM
- TGI [37]: 3.33 µM
- TGI [38]: 3.66 µM
- TGI [39]: 4.93 µM
- TGI [40]: 4.7 µM
- TGI [41]: 4.14 µM
- TGI [42]: 3.37 µM
- TGI [43]: 3.57 µM
- TGI [44]: 10.7 µM
- TGI [45]: 4.21 µM
- TGI [46]: 3.41 µM
- TGI [47]: 8.22 µM
- TGI [48]: 3.11 µM
- TGI [49]: 5.47 µM
- TGI [50]: 5 µM
- TGI [51]: 5.37 µM
- TGI [52]: 4.19 µM
- TGI [53]: 9.82 µM

SMILES: Cc1ccc(C)c2c1C/C(=C\c1ccccc1C(=O)O)C2=O
- TGI [1]: > 100 µM
- TGI [2]: > 100 µM
- TGI [3]: > 100 µM
- TGI [4]: > 100 µM
- TGI [54]: > 100 µM
- TGI [5]: > 100 µM
- TGI [6]: > 100 µM
- TGI [7]: > 100 µM
- TGI [8]: > 100 µM
- TGI [9]: > 100 µM
- TGI [10]: > 100 µM
- TGI [11]: > 100 µM
- TGI [12]: > 100 µM
- TGI [13]: > 100 µM
- TGI [14]: > 100 µM
- TGI [15]: > 100 µM
- TGI [16]: > 100 µM
- TGI [17]: > 100 µM
- TGI [18]: > 100 µM
- TGI [19]: > 100 µM
- TGI [20]: > 100 µM
- TGI [22]: > 100 µM
- TGI [23]: > 100 µM
- TGI [55]: 97.7 µM
- TGI [24]: > 100 µM
- TGI [25]: > 100 µM
- TGI [26]: > 100 µM
- TGI [27]: > 100 µM
- TGI [28]: > 100 µM
- TGI [56]: > 100 µM
- TGI [29]: > 100 µM
- TGI [30]: > 100 µM
- TGI [31]: > 100 µM
- TGI [32]: > 100 µM
- TGI [57]: > 100 µM
- TGI [33]: > 100 µM
- TGI [34]: > 100 µM
- TGI [35]: > 100 µM
- TGI [36]: > 100 µM
- TGI [37]: > 100 µM
- TGI [39]: > 100 µM
- TGI [58]: > 100 µM
- TGI [40]: > 100 µM
- TGI [41]: > 100 µM
- TGI [42]: > 100 µM
- TGI [43]: > 100 µM
- TGI [44]: > 100 µM
- TGI [45]: > 100 µM
- TGI [46]: > 100 µM
- TGI [47]: > 100 µM
- TGI [48]: 80.5 µM
- TGI [49]: > 100 µM
- TGI [50]: > 100 µM
- TGI [51]: > 100 µM
- TGI [52]: > 100 µM
- TGI [53]: > 100 µM

SMILES: COc1cc(N2C(=O)C(=O)C3(CCCCC3)C2=O)cc(OC)c1OC
- TGI [1]: > 100 µM
- TGI [2]: > 100 µM
- TGI [3]: > 100 µM
- TGI [4]: > 100 µM
- TGI [54]: > 100 µM
- TGI [5]: > 100 µM
- TGI [7]: > 100 µM
- TGI [8]: > 100 µM
- TGI [10]: > 100 µM
- TGI [11]: > 100 µM
- TGI [12]: > 100 µM
- TGI [13]: > 100 µM
- TGI [15]: > 100 µM
- TGI [16]: > 100 µM
- TGI [17]: > 100 µM
- TGI [18]: > 100 µM
- TGI [19]: > 100 µM
- TGI [20]: > 100 µM
- TGI [21]: > 100 µM
- TGI [22]: > 100 µM
- TGI [23]: > 100 µM
- TGI [55]: > 100 µM
- TGI [24]: > 100 µM
- TGI [25]: > 100 µM
- TGI [27]: > 100 µM
- TGI [28]: > 100 µM
- TGI [56]: > 100 µM
- TGI [29]: > 100 µM
- TGI [30]: > 100 µM
- TGI [31]: > 100 µM
- TGI [32]: > 100 µM
- TGI [57]: > 100 µM
- TGI [33]: > 100 µM
- TGI [34]: > 100 µM
- TGI [35]: > 100 µM
- TGI [37]: > 100 µM
- TGI [38]: > 100 µM
- TGI [39]: > 100 µM
- TGI [58]: > 100 µM
- TGI [40]: > 100 µM
- TGI [41]: > 100 µM
- TGI [42]: > 100 µM
- TGI [43]: > 100 µM
- TGI [44]: > 100 µM
- TGI [45]: > 100 µM
- TGI [46]: > 100 µM
- TGI [47]: > 100 µM
- TGI [48]: > 100 µM
- TGI [49]: > 100 µM
- TGI [50]: > 100 µM
- TGI [51]: > 100 µM
- TGI [52]: > 100 µM
- TGI [53]: > 100 µM
